The values that follow come from patent US11498930B2 (BLUERAY THERAPEUTICS (SHANGHAI) CO., LTD., priority 2018, dated 2022).

Sequence of SHP2^E76A protein (Q06124 whole entry E76A): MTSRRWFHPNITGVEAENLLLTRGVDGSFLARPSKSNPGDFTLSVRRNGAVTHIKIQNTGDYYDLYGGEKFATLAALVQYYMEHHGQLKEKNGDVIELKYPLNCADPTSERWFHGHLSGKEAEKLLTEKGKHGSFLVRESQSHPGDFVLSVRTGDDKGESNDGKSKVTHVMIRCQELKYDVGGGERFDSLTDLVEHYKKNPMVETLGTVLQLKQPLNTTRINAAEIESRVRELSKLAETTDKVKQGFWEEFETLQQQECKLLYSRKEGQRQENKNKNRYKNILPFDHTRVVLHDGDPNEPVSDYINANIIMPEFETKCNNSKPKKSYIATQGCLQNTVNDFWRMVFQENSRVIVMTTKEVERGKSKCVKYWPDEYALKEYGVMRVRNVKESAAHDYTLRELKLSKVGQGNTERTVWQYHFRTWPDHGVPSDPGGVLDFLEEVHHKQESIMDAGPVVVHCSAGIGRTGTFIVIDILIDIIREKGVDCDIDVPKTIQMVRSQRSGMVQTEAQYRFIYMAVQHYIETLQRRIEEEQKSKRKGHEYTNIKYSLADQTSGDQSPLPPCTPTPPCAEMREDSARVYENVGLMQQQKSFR

The first assay addresses SHP2^E76A protein (Homo sapiens (Human), UniProt Q06124, E76A). Put plainly: SHP2 enzyme activity inhibition experiment. Format: biochemical. Particulars: SHP2 enzyme activity, Tables 1.1 and 1.2; read-out: IC50. Here is the method:
Compound powders were dissolved in DMSO to prepare mother liquor.
During the experiment, the stock solutions of the compounds were subjected to 3-fold gradient dilution with DMSO, and 10 different test concentrations of each compound were set. […] The protein used was the activated protein SHP^2E76A with amino acid mutation at position 76 of the protein, and the substrate used was DiFMUP (Invitrogen, E12020). […] 50 µL of enzyme solution was added to the detection wells, followed by 50 µL of substrate. […] GraphPad Prism 5 was used for nonlinear regression analysis, and the curve of enzyme activity versus compound concentration was fitted by the equation Y=Bottom+(Top-Bottom)/(1+10^((Log IC50−X)*HillSlope)) to calculate the IC50 value of each compound.
By IC50 is commonly meant the concentration at which inhibition is half-maximal. Regarding `NC1CCCCC12CCN(c1ncc(Sc3cccc(Cl)c3Cl)c3ncnn13)CC2` (stereo not shown), the IC50 was 100 to 1000 nM.

`C[C@@H]1OCC2(CCN(c3ncc(Sc4cc(N)ncc4Cl)c4nncn34)CC2)[C@@H]1N`: the IC50 is below 100 nM.

For `N[C@@H]1CCCC12CCN(c1ncc(Sc3cccnc3Cl)c3ncnn13)CC2`, the half-maximal inhibitory concentration (IC50) lay in the range of 100 to 1000 nM.

In the case of `CC(C)c1ccccc1Sc1cnc(N2CCC3(CCC[C@H]3N)CC2)n2ccnc12` [(R)-8-(8-((2-isopropylphenyl)thio)imidazo[1,2-c]pyrimidin-5-yl)-8-azaspiro[4.5]decan-1-amine], the IC50 lay within 100 to 1000 nM.

Turning to `COc1ccccc1Sc1cnc(N2CCC3(CCC[C@H]3N)CC2)n2ncnc12` [(R)-8-(8-((2-methoxyphenyl)thio)-[1,2,4]triazolo[1,5-c]pyrimidin-5-yl)-8-azaspiro[4.5]decan-1-amine], the IC50 lay in the range of 100 to 1000 nM.

As for `Cc1ncccc1Sc1cnc(N2CCC3(CCC[C@H]3N)CC2)n2cnnc12` [(R)-8-(8-((2-methylpyridin-3-yl)thio)-[1,2,4]triazolo[4,3-c]pyrimidin-5-yl)-8-azaspiro[4.5]decan-1-amine], the IC50 is 100 to 1000 nM.

Consider `Cc1ncccc1Sc1cnc(N2CCC3(CCC[C@H]3N)CC2)n2ccnc12` [(R)-8-(8-((2-methylpyridin-3-yl)thio)imidazo[1,2-c]pyrimidin-5-yl)-8-azaspiro[4.5]decan-1-amine], for which the IC50 was below 100 nM.

For the compound `N[C@@H]1CCCC12CCN(c1ncc(Sc3ccncc3C(F)(F)F)c3ncnn13)CC2` [(R)-8-(8-((3-(trifluoromethyl)pyridin-4-yl)thio)-[1,2,4]triazolo[1,5-c]pyrimidin-5-yl)-8-azaspiro[4.5]decan-1-amine], the IC50 fell in the range of 1000 to 10000 nM.

For `CN(C)c1nccc(Sc2cnc(N3CCC4(CCC[C@H]4N)CC3)n3cnnc23)c1Cl` [(R)-8-(8-((3-chloro-2-(dimethylamino)pyridin-4-yl)thio)-[1,2,4]triazolo[4,3-c]pyrimidin-5-yl)-8-azaspiro[4.5]decan-1-amine], the half-maximal inhibitory concentration (IC50) lay in the range of 100 to 1000 nM.

`Nc1ccc(Sc2cnc(N3CCC4(CCC[C@H]4N)CC3)n3cnnc23)cc1` [(R)-8-(8-((4-aminophenyl)thio)-[1,2,4]triazolo[4,3-c]pyrimidin-5-yl)-8-azaspiro[4.5]decan-1-amine]: the half-maximal inhibitory concentration (IC50) fell in the range of 1000 to 10000 nM.

Take `N[C@@H]1CCCC12CCN(c1ncc(Sc3ccc(Cl)cc3)c3nncn13)CC2` [(R)-8-(8-((4-chlorophenyl)thio)-[1,2,4]triazolo[4,3-c]pyrimidin-5-yl)-8-azaspiro[4.5]decan-1-amine]: the 50% inhibitory concentration (IC50) was in the range of 1000 to 10000 nM.

Take `Nc1ccc(Sc2cnc(N3CCC4(CCC[C@H]4N)CC3)n3ncnc23)c(Cl)n1` [(R)-8-(8-((6-amino-2-chloropyridin-3-yl)thio)-[1,2,4]triazolo[1,5-c]pyrimidin-5-yl)-8-azaspiro[4.5]decan-1-amine]: the IC50 was in the range of 1000 to 10000 nM.

As to `Nc1ccc(Sc2cnc(N3CCC4(CCC[C@H]4N)CC3)n3ccnc23)c(Cl)n1` [(R)-8-(8-((6-amino-2-chloropyridin-3-yl)thio)imidazo[1,2-c]pyrimidin-5-yl)-8-azaspiro[4.5]decan-1-amine], the IC50 was below 100 nM.

For the compound `N[C@@H]1CCCC12CCN(c1ncc(Sc3cccc4ncsc34)c3nccn13)CC2` [(R)-8-(8-(benzo[d]thiazol-7-ylthio)imidazo[1,2-c]pyrimidin-5-yl)-8-azaspiro[4.5]decan-1-amine], the concentration for half-maximal inhibition (IC50) lay in the range of 100 to 1000 nM.

With `N[C@@H]1CCCC12CCN(c1ncc(Sc3ccccc3)c3ncnn13)CC2` [(R)-8-(8-(phenylthio)-[1,2,4]triazolo[1,5-c]pyrimidin-5-yl)-8-azaspiro[4.5]decan-1-amine], the IC50 was 1000 to 10000 nM.

Regarding `N[C@@H]1CCCC12CCN(c1ncc(Sc3ccccc3)c3nncn13)CC2` [(R)-8-(8-(phenylthio)-[1,2,4]triazolo[4,3-c]pyrimidin-5-yl)-8-azaspiro[4.5]decan-1-amine], the concentration for half-maximal inhibition (IC50) lay within 1000 to 10000 nM.

Regarding `N[C@@H]1CCCC12CCN(c1ncc(Sc3ccccn3)c3nncn13)CC2` [(R)-8-(8-(pyridin-2-ylthio)-[1,2,4]triazolo[4,3-c]pyrimidin-5-yl)-8-azaspiro[4.5]decan-1-amine], the IC50 lay in the range of 1000 to 10000 nM.

In the case of `N[C@@H]1CCCC12CCN(c1ncc(Sc3cccnc3)c3ncnn13)CC2` [(R)-8-(8-(pyridin-3-ylthio)-[1,2,4]triazolo[1,5-c]pyrimidin-5-yl)-8-azaspiro[4.5]decan-1-amine], the 50% inhibitory concentration (IC50) lay in the range of 1000 to 10000 nM.

Turning to `N[C@@H]1CCCC12CCN(c1ncc(Sc3ccnc4ccccc34)c3nncn13)CC2` [(R)-8-(8-(quinolin-4-ylthio)-[1,2,4]triazolo[4,3-c]pyrimidin-5-yl)-8-azaspiro[4.5]decan-1-amine], the 50% inhibitory concentration (IC50) was below 100 nM.

Regarding `CC(=O)Nc1ccc(Sc2cnc(N3CCC4(CCC[C@H]4N)CC3)n3cnnc23)cc1` [(R)-N-(4-((5-(1-amino-8-azaspiro[4.5]decan-8-yl)-[1,2,4]triazolo[4,3-c]pyrimidin-8-yl)thio)phenyl)acetamide], the IC50 is 1000 to 10000 nM.

Consider `N[C@H]1CCC12CCN(c1ncc(Sc3cccc(Cl)c3Cl)c3nncn13)CC2` [(S)-7-(8-((2,3-dichlorophenyl)thio)-[1,2,4]triazolo[4,3-c]pyrimidin-5-yl)-7-azaspiro[3.5]nonan-1-amine], for which the IC50 fell in the range of 1000 to 10000 nM.

As to `N[C@H]1CCCC12CCN(c1ncc(Sc3cccc(Cl)c3Cl)c3nncn13)CC2` [(S)-8-(8-((2,3-dichlorophenyl)thio)-[1,2,4]triazolo[4,3-c]pyrimidin-5-yl)-8-azaspiro[4.5]decan-1-amine], the IC50 was in the range of 1000 to 10000 nM.

As to `Cc1nccc(Sc2cnc(N3CCC4(CC3)COC[C@H]4N)n3ncnc23)c1Cl` [(S)-8-(8-((3-chloro-2-methylpyridin-4-yl)thio)-[1,2,4]triazolo[1,5-c]pyrimidin-5-yl)-2-oxa-8-azaspiro[4.5]decan-4-amine], the half-maximal inhibitory concentration (IC50) lay in the range of 1000 to 10000 nM.

As to `COC(=O)c1ccccc1Sc1cnc(N2CCC3(CCC[C@H]3N)CC2)n2cnnc12` [Methyl (R)-2-((5-(1-amino-8-azaspiro[4.5]decan-8-yl)-[1,2,4]triazolo[4,3-c]pyrimidin-8-yl)thio)benzoate], the half-inhibitory concentration (IC50) was in the range of 1000 to 10000 nM.

With `COC(=O)CCSc1cnc(N2CCC3(CCC[C@H]3N)CC2)n2cnnc12` [Methyl (R)-3-((5-(1-amino-8-azaspiro[4.5]decan-8-yl)-[1,2,4]triazolo[4,3-c]pyrimidin-8-yl)thio)propionate], the IC50 fell in the range of 1000 to 10000 nM.

In the next assay the test system is MOLM-13 cells. Put plainly: MOLM-13 cell proliferation experiment. Format: cell-based. The conditions noted are these: Homo sapiens, MOLM-13, 72 h, MOLM-13 cell proliferation, 3 days, Tables 3.1 and 3.2; read-out: IC50. Here is the method:
After 3 days, 5 µL of CellTiter-Glo reagent (Promega, ZG7572) was added to each well, and the plates were kept at room temperature in the dark for 10 minutes. The […] was detected by Spectra max i3 (Molecular Devices). The relative growth rate of the treated cells was compared with that of DMSO control.
As for `NC1CCCCC12CCN(c1ncc(Sc3cccc(Cl)c3Cl)c3ncnn13)CC2` (stereo not shown), the concentration for half-maximal inhibition (IC50) lay within 1000 to 10000 nM.

As for `C[C@@H]1OCC2(CCN(c3ncc(Sc4cc(N)ncc4Cl)c4nncn34)CC2)[C@@H]1N`, the IC50 lay in the range of 1000 to 10000 nM.

As for `C[C@@H]1OCC2(CCN(c3ncc(Sc4cc(N)ncc4Cl)c4nccn34)CC2)[C@@H]1N`, the IC50 was in the range of 100 to 1000 nM.

Turning to `N[C@@H]1CCCC12CCN(c1ncc(Sc3cccnc3Cl)c3ncnn13)CC2`, the 50% inhibitory concentration (IC50) fell in the range of 1000 to 10000 nM.

Regarding `COc1ccccc1Sc1cnc(N2CCC3(CCC[C@H]3N)CC2)n2ncnc12`, the IC50 was in the range of 1000 to 10000 nM.

Turning to `Cc1ncccc1Sc1cnc(N2CCC3(CCC[C@H]3N)CC2)n2cnnc12`, the 50% inhibitory concentration (IC50) lay in the range of 1000 to 10000 nM.

On to `Cc1ncccc1Sc1cnc(N2CCC3(CCC[C@H]3N)CC2)n2ccnc12`, for which the half-inhibitory concentration (IC50) is 100 to 1000 nM.

As to `CN(C)C(=O)C(=O)Nc1cccc(Sc2cnc(N3CCC4(CCC[C@H]4N)CC3)n3ccnc23)c1Cl`, the IC50 fell in the range of 100 to 1000 nM.

Consider `Cc1nccc(Sc2cnc(N3CCC4(CC3)COC[C@H]4N)n3cnnc23)c1Cl` [(S)-8-(8-((3-chloro-2-methylpyridin-4-yl)thio)-[1,2,4]triazolo[4,3-c]pyrimidin-5-yl)-2-oxa-8-azaspiro[4.5]decan-4-amine], for which the IC50 lay within 100 to 1000 nM.
